Experimental data from patent US20250179167A1, “IL-6 INHIBITOR AS TREATMENT FOR NEPHROPATHY” (YALE UNIVERSITY, priority 2022, published 2025).

Legend:
diabetic CD-1 mice = assay: Wnt inhibitor (LGK974) treatment in diabetic CD-1 mice, renal histology, GR and β-catenin; assay type: in vivo, mouse
Method: (§1) FIG. 24A-24J show inhibition of Wnt signaling abolished the fibrogenic phenotype in mice. (FIG. 24A) Immunohistochemical analysis of -catenin expression in the kidneys of control and diabetic CD-1 and C57BL/6 mice. n=8 biologically independent mice/group combined from two independent experiments were evaluated. Scale bar 50 μm. Representative images are shown; original magnification 200×. (FIG. 24B) Relative mRNA expression determined by qRT-PCR of Axin2, Tcf and fibronectin, in kidneys of control and diabetic CD-1 and C57BL/6 mice. n=6 biologically independent mice/group combined from two experiments were evaluated. Expression was normalized to the internal control 18S. (FIG. 24C) Schematic diagram representing the treatment protocol of Wnt inhibitor (LGK974; 5 mg/kg body weight) in diabetic CD-1 mice and (FIG. 24D) in UUO mice. (FIG. 24E) Masson trichrome and Sirius red staining in the kidneys of diabetic and Wnt inhibitor-treated diabetic CD-1 mice. Representative images (original magnification 300×) are shown. Relative area of fibrosis (%) and relative collagen deposition (%) were measured using the ImageJ program. n=8 biologically independent mice/group combined from two experiments were evaluated. Scale bar 50 μm. (FIG. 24F) Masson trichrome and Sirius red staining in the kidneys of UUO and Wnt inhibitor-treated UUO mice. Representative images (original magnification 300×) are shown. Relative area of fibrosis (%) and relative collagen deposition (%) were measured using the ImageJ program. n=8 biologically independent mice/group combined from two experiments were evaluated. Scale bar 50 μm. (FIGS. 24G-24H) GR protein levels in CD31-positive cells were analyzed by immunofluorescence in the kidneys of Wnti-treated diabetic mice and Wnti-treated UUO mice. FITC-labeled GR, rhodamine-labeled CD31 and DAPI were used. Merged images and representative pictures are shown; original magnification 300×. n=7 biologically independent mice/group combined from four experiments were evaluated. Scale bar 50 μm. (FIGS. 24I-24J) Immunohistochemical analysis of active -catenin expression in Wnti-treated diabetic mice and Wnti-treated UUO mice. n=7 biologically independent mice/group combined from three experiments were evaluated. Scale bar 30 μm. Data are mean SEM. In all panels, one-way Anova with Tukey multiple comparison post hoc test was used to calculate statistical significance. Significance—*p<0.05, **p<0.01, ***p<0.001.
A single IP dose of 200 mg/kg STZ was used to induce diabetes in CD-1 mice.
In one experiment, male mice were randomized to one of 4 groups sixteen weeks after induction of diabetes: (i) untreated, (ii) fenofibrate (100 mg/kg), (iii) simvastatin (40 mg/kg), or (iv) Wnt inhibitor (LGK974; 5 mg/kg). In each case, mice were treated for 4 weeks and compared to untreated diabetic CD-1 mice. In another experiment, male diabetic CD-1 mice were randomized into one of 3 groups: (i) untreated (vehicle), (ii) etomoxir (20 mg/kg) or (iii) C75 (15 mg/kg); in each case mice were treated (IP) three times/week for a total 4 weeks.
(§2) Morphological Evaluation. A point-counting method was utilized to evaluate the relative area of the mesangial matrix. The inventors analyzed PAS-stained glomeruli from each mouse using a digital microscope screen grid containing 540 (27×20) points. Masson's trichrome-stained images were evaluated by ImageJ software, and the fibrotic areas were estimated.
Sirius red staining. Deparaffinized sections were incubated with picrosirius red solution for 1 hour at room temperature. The slides were washed twice with acetic acid solution for 30 seconds per wash. The slides were then dehydrated in absolute alcohol three times, cleared in xylene, and mounted with a synthetic resin. Sirius red staining was analyzed using ImageJ software, and fibrotic areas were quantified.
Immunohistochemistry. […]

UUO mice = assay: Wnt inhibitor (LGK974) treatment in UUO mice, renal histology, GR and β-catenin; assay type: in vivo, mouse
Method: as §1
Mouse model of unilateral ureteral obstruction (UUO). UUO surgical procedure was performed as previously described^19. Briefly, mice were anesthetized with isoflurane (3%-5% for induction and 1%-3% for maintenance). Mice were shaved on the left side of the abdomen, a vertical incision was made through the skin with a scalpel, and the skin was retracted. A second incision was made through the peritoneum to expose the kidney. The left ureter was ligated twice […] below the renal pelvis with surgical silk, and the ureter was then severed between the 2 ligatures. Then, the ligated kidney was placed gently back into its correct anatomical position, and sterile saline was added to replenish loss of fluid. The incisions were sutured and mice were individually caged. Buprenorphine was used as an analgesic. The first dose was administered 30 minutes before surgery and then every 12 h for 72 h, at a dose of 0.05 mg/kg subcutaneously. Mice were sacrificed and kidney and blood samples were harvested after perfusion with PBS at 10 days after UUO. Contralateral kidneys were used as a nonfibrotic control for all experiments using this model.
as §2
Sirius red staining. […]

[1] = kidney, GR in CD31-positive cells

Question: Which ECM deposition (diabetic CD-1 mice; 5 mg/kg) does the source give for `Cc1cc(-c2ncc(CC(=O)Nc3ccc(-c4cnccn4)cn3)cc2C)ccn1` [LGK974] here?
Answer: greatly diminished

Question: And the collagen accumulation (diabetic CD-1 mice; 5 mg/kg)?
Answer: greatly diminished

Question: And the glomerulosclerosis (diabetic CD-1 mice; 5 mg/kg)?
Answer: greatly diminished

Question: And the “relative area of fibrosis” value (diabetic CD-1 mice; 5 mg/kg)?
Answer: greatly diminished

Question: And the “level of β-catenin” value (diabetic CD-1 mice; kidney immunohistochemistry)?
Answer: suppressed the level of β-catenin

Question: And the “endothelial GR” value (diabetic CD-1 mice; [1])?
Answer: substantially restored endothelial GR

Question: And the ECM deposition (UUO mice; 5 mg/kg)?
Answer: greatly diminished

Question: What about the collagen accumulation (UUO mice; 5 mg/kg) of the same molecule?
Answer: greatly diminished

Question: What about the glomerulosclerosis (UUO mice; 5 mg/kg) of the same molecule?
Answer: greatly diminished

Question: What about the “relative area of fibrosis” value (UUO mice; 5 mg/kg) of the same molecule?
Answer: greatly diminished

Question: And the “level of β-catenin” value (UUO mice; kidney immunohistochemistry)?
Answer: suppressed the level of β-catenin

Question: And the “endothelial GR” value (UUO mice; [1])?
Answer: substantially restored endothelial GR
